Reference: patent US12215093B2, “Bicyclic carboxamides and methods of use thereof” (Tempest Therapeutics, Inc., priority 2018, dated 2025)
pIC50: −log10 of the molar value.

Legend:
EP2 = EP2 (Homo sapiens, UniProt P43116);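 note: functional calcium flux assay in stably transfected HEK293 cells expressing EP2 coupled via a promiscuous G protein, clytin luminescence read as area under the curve, 30 min compound preincubation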
Description: Each receptor subtype has an additional promiscuous G protein added in order to couple the aforementioned receptor to the calcium signaling pathway. The parental cell line used also expresses a novel variant of clytin, a calcium-activated photo-protein, to enable sensitive luminescent detection. Briefly, cells were plated at 50,000 cells-per-well in black, clear bottom 96-well plates. The plated cells were allowed to sit at room temperature for 30 min prior to transferring to a humidified, 37° C., 5% CO2 incubator for 18 to 24 h. Assay buffer (HBSS with 20 mM HEPES) and loading buffer (assay buffer plus 10 μM coelenterazine) were prepared on the day of the assay. Assays were performed by aspirating media from the assay plate and washing once with assay buffer, then replacing with loading buffer and allowing the cells to incubate for 1.5 h at room temperature. Compounds were prepared in assay buffer at a 3× final concentration in non-binding plates. Compounds were added to the cell plates and incubated for 30 min at room temperature. The prostanoid receptor ligand PGE2 was prepared at a 4× dilution ratio for a final concentration of 10 nM. Plates were run on a Flexstation™ using a 100 ms integration luminescence protocol for a total of 60 sec with ligand addition at 15 sec. Data were obtained from relative light units as measured by area under the curve.

EP4 = target: T1, EP4 (Homo sapiens, UniProt P35408); assay: Functional calcium flux assay, EP4; assay type: cell-based; settings: stably transfected HEK293 cells; PGE2 10 nM; read-out: EP4 Ca2+-flux assay IC50
T1 construct: host or cells: stably transfected HEK293 cells co-expressing a promiscuous G protein and a clytin variant
T1 sequence (P35408 whole entry): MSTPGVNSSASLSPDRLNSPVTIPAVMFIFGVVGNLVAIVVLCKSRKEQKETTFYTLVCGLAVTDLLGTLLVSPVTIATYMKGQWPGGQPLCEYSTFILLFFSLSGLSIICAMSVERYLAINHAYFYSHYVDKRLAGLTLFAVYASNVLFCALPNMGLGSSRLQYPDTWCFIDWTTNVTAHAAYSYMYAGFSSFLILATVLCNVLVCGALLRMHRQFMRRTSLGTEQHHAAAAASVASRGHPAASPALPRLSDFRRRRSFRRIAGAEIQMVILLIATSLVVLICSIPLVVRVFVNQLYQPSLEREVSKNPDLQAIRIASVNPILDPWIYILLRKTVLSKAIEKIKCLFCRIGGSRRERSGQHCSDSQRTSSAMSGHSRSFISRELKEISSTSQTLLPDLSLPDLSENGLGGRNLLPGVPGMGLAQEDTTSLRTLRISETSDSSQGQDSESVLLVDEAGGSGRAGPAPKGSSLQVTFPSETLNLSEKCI

Sequence of EP2 (P43116 whole entry): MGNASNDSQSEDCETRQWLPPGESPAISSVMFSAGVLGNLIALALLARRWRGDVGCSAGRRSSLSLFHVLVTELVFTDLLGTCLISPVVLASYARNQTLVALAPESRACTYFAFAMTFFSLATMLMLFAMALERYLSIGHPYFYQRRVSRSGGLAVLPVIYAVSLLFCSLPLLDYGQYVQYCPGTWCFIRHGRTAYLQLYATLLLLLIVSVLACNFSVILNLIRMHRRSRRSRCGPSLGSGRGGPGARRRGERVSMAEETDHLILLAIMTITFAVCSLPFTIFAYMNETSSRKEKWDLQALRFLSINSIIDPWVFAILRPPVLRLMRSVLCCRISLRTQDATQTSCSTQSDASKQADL

Row | SMILES | pIC50 (EP2) | pIC50 (EP4)
1 | CCOc1nccc(-c2ccc(Cn3ncc4c(Cl)ccc(C(=O)NC5CC6(C5)CC(C(=O)O)C6)c43)cc2)n1 (stereo not shown) [Example 84, (Sa)-6-(4-chloro-1-(4-(2-ethoxypyrimidin-6-yl)benzyl)-1H-indazole-7-carboxamido)spiro[3.3]heptane-2-carboxylic acid] | > 7.60 | > 9.00
2 | CNC(=O)c1cccc(-c2ccc(Cn3ncc4c(Cl)ccc(C(=O)NC5CC6(C5)CC(C(=O)O)C6)c43)cc2)n1 (stereo not shown) [Example 85, (Sa)-6-(4-chloro-1-(4-(6-(methylcarbamoyl)pyridin-2-yl)benzyl)-1H-indazole-7-carboxamido)spiro[3.3]heptane-2-carboxylic acid] | 7.52 | > 9.00
3 | O=C(NC1CC2(C1)CC(C(=O)O)C2)c1ccc(Cl)c2cnn(Cc3ccc(-c4cccc(OC(F)(F)F)n4)cc3)c12 (stereo not shown) [Example 86] | 7.44 | 8.74
4 | CCOc1cc(-c2ccc(Cn3ccc4c(OC)ncc(C(=O)NC5CC6(C5)CC(C(=O)O)C6)c43)cc2)ccn1 (stereo not shown) [Example 89, (Sa)-6-(1-(4-(2-ethoxypyridin-4-yl)benzyl)-4-methoxy-1H-pyrrolo[3,2-c]pyridine-7-carboxamido)spiro[3.3]heptane-2-carboxylic acid] | 7.01 | 8.89
5 | CCOc1ncc(C(=O)NC2CC3(C2)CC(C(=O)O)C3)c2c1ccn2Cc1ccc(-c2ccccc2)cc1 (stereo not shown) [Example 90, (Sa)-6-(1-([1,1′-biphenyl]-4-ylmethyl)-4-ethoxy-1H-pyrrolo[3,2-c]pyridine-7-carboxamido)spiro[3.3]heptane-2-carboxylic acid] | 7.24 | > 9.00
6 | CCOc1ccc(-c2ccc(Cn3ccc4c(OC)ncc(C(=O)NC5CC6(C5)CC(C(=O)O)C6)c43)cc2)cn1 (stereo not shown) [Example 91, (Sa)-6-(1-(4-(6-ethoxypyridin-3-yl)benzyl)-4-methoxy-1H-pyrrolo[3,2-c]pyridine-7-carboxamido)spiro[3.3]heptane-2-carboxylic acid] | 7.23 | > 9.00
7 | O=C(NC1CC2(C1)CC(C(=O)O)C2)c1ccc(Cl)c2cnn(Cc3ccc(OC(F)(F)F)cc3)c12 (stereo not shown) [Example 95, (Sa)-6-(4-chloro-1-(4-(trifluoromethoxy)benzyl)-1H-indazole-7-carboxamido)spiro[3.3]heptane-2-carboxylic acid] | 7.08 | 8.05
8 | O=C(NC1CC2(C1)CC(C(=O)O)C2)c1ccc(Cl)c2cnn(Cc3ccc4ccccc4c3)c12 (stereo not shown) [Example 96, (Sa)-6-(4-chloro-1-(naphthalen-2-ylmethyl)-1H-indazole-7-carboxamido)spiro[3.3]heptane-2-carboxylic acid] | > 7.60 | > 9.00
9 | COc1ccc(-c2ccc(Cn3ccc4c(F)ccc(C(=O)NC5CC6(CC(CC(=O)O)C6)C5)c43)cc2)cn1 (stereo not shown) [Example 138, (Ra)-2-(6-(4-Fluoro-1-(4-(6-methoxypyridin-3-yl)benzyl)-1H-indole-7-carboxamido)spiro[3.3]heptan-2-yl)acetic acid] | 7.60 | > 9.00
10 | COc1cc(-c2ccc(Cn3ccc4c(F)ccc(C(=O)NC5CC6(CC(CC(=O)O)C6)C5)c43)cc2)ccn1 (stereo not shown) [Example 139, (Ra)-2-(6-(4-Fluoro-1-(4-(2-methoxypyridin-4-yl)benzyl)-1H-indole-7-carboxamido)spiro[3.3]heptan-2-yl)acetic acid] | > 7.60 | > 9.00
11 | O=C(O)CC1CC2(C1)CC(NC(=O)c1ccc(Cl)c3cnn(Cc4ccc(-c5ccccc5F)cc4)c13)C2 (stereo not shown) [Example 143, (Ra)-2-(6-(4-Chloro-1-((2′-fluoro-[1,1′-biphenyl]-4-yl)methyl)-1H-indazole-7-carboxamido)spiro[3.3]heptan-2-yl)acetic acid] | 7.46 | > 9.00
12 | N#Cc1cccc(-c2ccc(Cn3ncc4c(Cl)ccc(C(=O)NC5CC6(CC(CC(=O)O)C6)C5)c43)cc2)c1 (stereo not shown) [Example 144, (Ra)-2-(6-(4-Chloro-1-((3′-cyano-[1,1-biphenyl]-4-yl)methyl)-1H-indazole-7-carboxamido)spiro[3.3]heptan-2-yl)acetic acid] | > 7.60 | > 9.00
13 | COc1ccc2cc(-c3ccc(Cn4ncc5c(Cl)ccc(C(=O)NC6CC7(CC(CC(=O)O)C7)C6)c54)cc3)ccc2n1 (stereo not shown) [Example 146, (Ra)-2-(6-(4-Chloro-1-(4-(2-methoxyquinolin-6-yl)benzyl)-1H-indazole-7-carboxamido)spiro[3.3]heptan-2-yl)acetic acid] | 7.09 | > 9.00
14 | COc1ccc2cc(-c3ccc(Cn4ncc5cc(Cl)cc(C(=O)NC6CC7(CC(CC(=O)O)C7)C6)c54)cc3)ccc2n1 (stereo not shown) [Example 147, (Ra)-2-(6-(5-Chloro-1-(4-(2-methoxyquinolin-6-yl)benzyl)-1H-indazole-7-carboxamido)spiro[3.3]heptan-2-yl)acetic acid] | > 7.60 | > 9.00
15 | COc1cccc(-c2ccc(Cn3ncc4c(Cl)ccc(C(=O)NC5CC6(CC(CC(=O)O)C6)C5)c43)cc2)n1 [Example 149, (R)-2-(6-(4-Chloro-1-(4-(6-methoxypyridin-2-yl)benzyl)-1H-indazole-7-carboxamido)spiro[3.3]heptan-2-yl)acetic acid] | 7.42 | > 9.00
16 | O=C(O)CC1CC2(C1)CC(NC(=O)c1cc(Cl)cc3cnn(Cc4ccc(-c5ccccc5)c(F)c4)c13)C2 (stereo not shown) [Example 151, (Ra)-2-(6-(5-Chloro-1-((2-fluoro-[1,1′-biphenyl]-4-yl)methyl)-1H-indazole-7-carboxamido)spiro[3.3]heptan-2-yl)acetic acid] | > 7.60 | > 9.00
17 | O=C(O)CC1CC2(C1)CC(NC(=O)c1cc(Cl)cc3cnn(Cc4ccc(-c5ccccc5)c(F)c4)c13)C2 (stereo not shown) [Example 152, (Sa)-2-(6-(5-Chloro-1-((2-fluoro-[1,1′-biphenyl]-4-yl)methyl)-1H-indazole-7-carboxamido)spiro[3.3]heptan-2-yl)acetic acid] | 7.31 | > 9.00
18 | O=C(NC1CC2(C1)CC(C(=O)O)C2)c1cc(Cl)cc2cnn(Cc3ccc(-c4ccccc4)c(F)c3)c12 (stereo not shown) [Example 153, (Sa)-6-(5-Chloro-1-((2fluoro-[1,1′-biphenyl]-4-yl)methyl)-1H-indazole-7-carboxamido)spiro[3.3]heptane-2-carboxylic acid] | 7.02 | > 9.00
19 | COc1cc(-c2ccc(Cn3ncc4cc(Cl)cc(C(=O)NC5CC6(C5)CC(C(=O)O)C6)c43)cc2F)ccn1 (stereo not shown) [Example 154, (Sa)-6-(5-Chloro-1-(3-fluoro-4-(2-methoxypyridin-4-yl)benzyl)-1H-indazole-7-carboxamido)spiro[3.3]heptane-2-carboxylic acid] | > 7.60 | 8.55
20 | COc1cc(-c2ccc(Cn3ncc4cc(Cl)cc(C(=O)NC5CC6(C5)CC(C(=O)O)C6)c43)c(F)c2)ccn1 (stereo not shown) [Example 156, (Sa)-6-(5-Chloro-1-(2-fluoro-4-(2-methoxypyridin-4-yl)benzyl)-1H-indazole-7-carboxamido)spiro[3.3]heptane-2-carboxylic acid] | > 7.60 | > 9.00
21 | COc1cc(C(=O)NC2CC3(C2)CC(C(=O)O)C3)c2c(cnn2Cc2ccc(-c3ccccc3)cc2)c1 (stereo not shown) [Example 159, (Sa)-6-(1-([1,1′-Biphenyl]-4-ylmethyl)-5-methoxy-1H-indazole-7-carboxamido)spiro[3.3]heptane-2-carboxylic acid] | 7.19 | > 9.00
22 | COc1ccc(C(=O)NC2CC3(CC(CC(=O)O)C3)C2)c2c1cnn2Cc1ccc(-c2ccccc2)cc1 (stereo not shown) [Example 161, (Ra)-2-(6-(1-([1,1′-Biphenyl]-4-ylmethyl)-4-methoxy-1H-indazole-7-carboxamido)spiro[3.3]heptan-2-yl)acetic acid] | 7.20 | > 9.00
23 | O=C(O)CC1CC2(C1)CC(NC(=O)c1ccc(OC(F)F)c3cnn(Cc4ccc(-c5ccccc5)cc4)c13)C2 (stereo not shown) [Example 162, (Ra)-2-(6-(1-([1,1′-Biphenyl]-4-ylmethyl)-4-(difluoromethoxy)-1H-indazole-7-carboxamido)spiro[3.3]heptan-2-yl)acetic acid] | 7.28 | 8.92
24 | O=C(NC1CC2(C1)CC(C(=O)O)C2)c1cc(OC(F)F)cc2cnn(Cc3ccc(-c4ccccc4)cc3)c12 (stereo not shown) [Example 163] | 7.52 | > 9.00
25 | COc1cc(C(=O)NC2CC3(CC(CC(=O)O)C3)C2)c2c(cnn2Cc2ccc(-c3ccccc3)cc2)c1 (stereo not shown) [Example 164, (Ra)-2-(6-(1-([1,1′-Biphenyl]-4-ylmethyl)-5-methoxy-1H-indazole-7-carboxamido)spiro[3.3]heptan-2-yl)acetic acid] | > 7.60 | > 9.00
26 | O=C(O)CC1CC2(C1)CC(NC(=O)c1cc(OC(F)F)cc3cnn(Cc4ccc(-c5ccccc5)cc4)c13)C2 (stereo not shown) [Example 165, (Ra)-2-(6-(1-([1,1′-Biphenyl]-4-ylmethyl)-5-(difluoromethoxy)-1H-indazole-7-carboxamido)spiro[3.3]heptan-2-yl)acetic acid] | > 7.60 | 9.00
27 | O=C(O)CC1CC2(C1)CC(NC(=O)c1cc(Cl)c(F)c3cnn(Cc4ccc(-c5ccccc5)cc4)c13)C2 (stereo not shown) [Example 170, (Ra)-2-(6-(1-([1,1′-Biphenyl]-4-ylmethyl)-5-chloro-4-fluoro-1H-indazole-7-carboxamido)spiro[3.3]heptan-2-yl)acetic acid] | > 7.60 | 8.29
28 | COc1c(Cl)cc(C(=O)NC2CC3(CC(CC(=O)O)C3)C2)c2c1cnn2Cc1ccc(-c2ccccc2)cc1 (stereo not shown) [Example 171, (Ra)-2-(6-(1-([1,1′-Biphenyl]-4-ylmethyl)-5-chloro-4-methoxy-1H-indazole-7-carboxamido)spiro[3.3]heptan-2-yl)acetic acid] | > 7.60 | 8.85
29 | COc1ccc2cc(Cn3ncc4c(Cl)ccc(C(=O)N[C@H]5CC6(C5)C[C@H](C(=O)O)C6)c43)ccc2n1 (stereo partly shown) [Example 175, (Sa)-6-(4-Chloro-1-((2-methoxyquinolin-6-yl)methyl)-1H-indazole-7-carboxamido)spiro[3.3]heptane-2-carboxylic acid] | > 7.60 | 8.25
